The record followed here is patent US8258168B2, “2H or 3H-benzo[E]indazol-1-YL carbamate derivatives, the preparation and therapeutic use thereof” (Sanofi, priority 2004, dated 2012).

Data set [1] relates to motor neurons of the facial nucleus. Nature of the data set: Test of survival of the motor neurons after sectioning the facial nerve in rats aged 4 days. To be noted: immature rats, facial nerve section, treated for 7 days. Type of data set: in vivo, rat. On the procedure:
Study of the Neuroprotective Activity
Test of Survival of the Motor Neurons after Sectioning the Facial Nerve in Rats Aged 4 Days
After lesion of the facial nerve in immature rats, the motor neurons of the facial nucleus experience neuronal death by apoptosis. Neuronal survival is evaluated using neuronal counting and histological methods.
Immature rats aged 4 days are anaesthetized with pentobarbital (3 mg/kg by the i.p. route). The right facial nerve is exposed and sectioned at its outlet from the stylomastoid foramen. After waking up, the young rats are returned to their mothers and are treated for 7 days with one or two daily administrations, by the oral or intraperitoneal route, at doses ranging from 1 to 10 mg/kg.
7 days after the lesion, the animals are decapitated and the brains are frozen in isopentane at −40° C. The entire facial […] is cut with a cryostat into sections with a width of 10 μm. The motor neurons are stained with cresyl violet and counted using the Histo™ software (Biocom™)

Data set [2] deals with T1, peripheral-type benzodiazepine receptors (PBR or p sites) (Rattus norvegicus, UniProt P16257).
T1 construct: After decapitation, the kidney is removed and the tissue is homogenized; from tissue; host or cells: kidney membrane homogenate of male Sprague-Dawley rats
T1 sequence (P16257 whole entry): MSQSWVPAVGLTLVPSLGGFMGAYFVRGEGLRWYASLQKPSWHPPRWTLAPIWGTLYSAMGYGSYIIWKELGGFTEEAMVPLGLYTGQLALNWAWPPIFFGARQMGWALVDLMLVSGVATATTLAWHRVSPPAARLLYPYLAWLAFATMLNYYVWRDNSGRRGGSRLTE
Nature of the data set: Binding of [3H]Ro5-4864 to peripheral-type benzodiazepine receptors in rat kidney membranes.

On to `CCN(CC)C(=O)Oc1c2c(nn1-c1ccncc1)CCc1cc(Cl)ccc1-2.Cl`, for which the melting point – broadly, the temperature, or range, at which the solid turns liquid – was in the range of 250 to 251 °C.

Turning to `CC(C)N(C(=O)Oc1nn(-c2ccncc2)c2c1-c1ccc(Cl)cc1CC2)C(C)C.Cl`, the melting point lay within 146 to 148 °C.

Turning to `CCN(CC)C(=O)Oc1c2c(ccc3cc(Cl)ccc32)nn1-c1ccc(F)cc1` [compound 56], the “% increase in the survival of the neurons (10 mg/kg po)” value (from here on “% increase in the survival”) in data set [1] was 74%. Also, the IC50 (usually the concentration needed to halve the response being measured) in data set [2] stood at 1.4 nM.

Turning to `CCN(CC)C(=O)Oc1c2c(nn1-c1ccccc1)CCc1cc(Cl)ccc1-2` [compound 14], the “% increase in the survival” value in data set [1] stood at 38%. In data set [2], this compound came in with an IC50 of 1.6 nM.

With `CCN(CC)C(=O)Oc1c2c(nn1-c1ccc(F)cc1)CCc1ccccc1-2` [compound 20], the “% increase in the survival” value in data set [1] stood at 59%. This compound came in with an IC50 in data set [2] of 2.8 nM.
